Data as given in patent US5525626A (priority 1989, dated 1996).
Entries after “also recorded” stand apart in the source; their conditions may differ.

How the values were obtained:
LNCap cells [1] = experiment: growth inhibition of prostatic carcinoma cells (Table 1); format: cell-based, human; conditions: 250 μmol/ml, after 10 days
g-CCM cells = experiment: growth inhibition of anaplastic astrocytoma cells (Table 1); format: cell-based, human; conditions: 200 μmol/ml, after 10 days
MCF 7 cells = experiment: growth inhibition of breast cancer cells (Table 1, Example 2); format: cell-based, human
From the text: The MCF 7 cell line from breast cancer was cultivated in DMEM-S 10, enriched with 10% FCS, for 10 days in the usual way.

TP 242 MG cells = experiment: growth curve, glioblastoma cells; format: cell-based, human; conditions: for Cell count: 25 μM/ml
Procedure: (§1) The neuroblastoma cell line and the three glioblastoma cell lines were cultivated in Ham's F10 medium enriched with 10% fetal calf serum (FCS) and the usual quantity of penicillin, streptomycin (Pen/Strep) and glutamine. The epidermoidal cell line was cultivated in modified Eagle's Medium (MEM), likewise enriched with 10% (FCS) and the usual quantity of glutamine and Pen/Strep.
(§2) In each case 5×10^4 cells were plated out in T25 bottles, the untreated cells being incubated in analogous conditions as control. The cell count was microscopically determined after 3, 5, 7, 10 and 12 days.

TP 336 MG cells = experiment: growth curve, glioblastoma cells; format: cell-based, human; conditions: for Cell count: 10 μM/ml
Procedure: as §1, §2

U 178 MG cells = experiment: growth curve, glioblastoma cells; format: cell-based, human; conditions: for Cell count: 25 μM/ml
Procedure: as §1, §2

A 431 cells = experiment: growth curve, epidermoidal carcinoma cells; format: cell-based, human; conditions: for Cell count: 10 μM/ml
Procedure: as §1, §2

DU-145 cells = experiment: cell growth, combination with TNF; format: cell-based; conditions: 7-OH-1,2-BP 500 μM/ml; TNF 1 nM/ml; combination 500 μM/1 nM; 4 days; 3×10^4 cells/well; control 51.86 + 3.06
From the text: (§4) Various cell lines (DU-145, PC-3 and LNCaP) from prostate carcinomas were used.
(§5) Initial cell count: 3×10^4 cells/well; exposure period: DU-145, PC-3: 4 days; LNCaP: 6 days

PC-3 cells = experiment: cell growth, combination with TNF; format: cell-based; conditions: 7-OH-1,2-BP 500 μM/ml; TNF 1 nM/ml; combination 500 μM/1 nM; 4 days; 3×10^4 cells/well; control 18.58 + 1.05
From the text: as §4, §5

LNCap cells [2] = experiment: cell growth, combination with TNF; format: cell-based, human; conditions: 7-OH-1,2-BP 500 μM/ml; TNF 1 nM/ml; combination 500 μM/1 nM; 6 days; 3×10^4 cells/well; control 61.40 + 3.70
From the text: as §4, §5

[3] = test system: Onco Mouse mammary glands-neoplasms; experiment: chemoprevention in transgenic mice (mammary glands-neoplasms); format: in vivo; conditions: 200 μM/ml in drinking water
Procedure: The chemopreventive properties of 7-OH-1,2-BP were tested on transgenic mice of the Onco Mouse™ type (mammary glands-neoplasms): […]

DUKX cells = experiment: growth inhibition of c-myc-expressing tumor cells; format: cell-based, Chinese hamsters
From the text: a) DUKX cells (ovarian carcinoma cells from Chinese hamsters) which over-express "c-myc" products, were cultivated according to standard conditions, two comparative groups being grown.

PDFG-A gene = experiment: transcription (mRNA level); format: cell-based; conditions: Seliger et al., unpublished results; FIG. 8
From the text: (§3) In connection with the neoplastic transformation and increased proliferation rate of glioblastoma cells, two autocrinic loops, the EGF and the PDGF system, are discussed.

PDFG-B gene = experiment: transcription (mRNA level); format: cell-based; conditions: Seliger et al., unpublished results; FIG. 8
From the text: as §3

[4] = test system: U 178 MG, TP 410 N, TP 242 MG, TP 336 MG and A 431 cells; experiment: growth curves of five tumor cell lines, comparison with coumarin; format: cell-based, human; conditions: corresponding concentrations, up to 12 days
Procedure: as §1, §2

[5] = test system: PDGF receptors and EGF system; experiment: expression of receptors / EGF system; format: cell-based; conditions: Seliger et al., unpublished results
From the text: as §3

[6] = Homo sapiens, 288 h, 25 μM/ml (Table 2), read-out: % growth inhibition compared with control after 12 days

For O=c1ccc2ccc(O)cc2o1 [7-OH-1,2-BP, 7-hydroxy-1,2-benzopyrone], the “% Growth inhibition compared with control” value (“% Growth inhibition” for short) (LNCap cells [1]) was 66%, the “% Growth inhibition” value (g-CCM cells) was 44% and the “% Growth inhibition” value (MCF 7 cells; 200 μmol/ml, after 10 days) was 64%. For the same molecule, the “cytostatic effect on breast cancer cells” value (MCF 7 cells; Example 2, FIG. 1) was “clearly show the cytostatic effect”, the Cell count (TP 242 MG cells; after 3 days, control 10) was 4 × 10^4 and the Cell count (TP 242 MG cells; after 5 days, control 15) was 6 × 10^4. For the same molecule, the Cell count (TP 242 MG cells; after 7 days, control 23) was 8 × 10^4, the Cell count (TP 242 MG cells; after 10 days, control 49) was 10 × 10^4 and the Cell count (TP 242 MG cells; after 12 days, control 57) was 12 × 10^4. For the same molecule, the inhibition at 25 µM (TP 242 MG cells; [6]) was 79%, the Cell count (TP 336 MG cells; after 3 days, control 13) was 7 × 10^4 and the Cell count (TP 336 MG cells; after 5 days, control 25) was 11 × 10^4. The Cell count (TP 336 MG cells; after 7 days, control 39) was 22 × 10^4, the Cell count (TP 336 MG cells; after 10 days, control 34) was 18 × 10^4 and the Cell count (TP 336 MG cells; after 12 days, control 45) was 18 × 10^4. The inhibition at 10 µM (TP 336 MG cells; Homo sapiens, 288 h, 10 μM/ml (Table 2), read-out: % growth inhibition compared with control after 12 days) was 60%, the Cell count (U 178 MG cells; after 3 days, control 23) was 15 × 10^4 and the Cell count (U 178 MG cells; after 5 days, control 57) was 13 × 10^4. For the same molecule, the Cell count (U 178 MG cells; after 7 days, control 84) was 26 × 10^4, the inhibition at 25 µM (U 178 MG cells; [6]) was 74% and the Cell count (A 431 cells; after 3 days, control 6) was 4 × 10^4. The Cell count (A 431 cells; after 5 days, control 24) was 10 × 10^4, the Cell count (A 431 cells; after 7 days, control 45) was 3 × 10^4 and the Cell count (A 431 cells; after 10 days, control 56) was 12 × 10^4. For the same molecule, the Cell count (A 431 cells; after 12 days, control 87) was 21 × 10^4, the inhibition at 10 µM (A 431 cells; Homo sapiens, A-431, 288 h, 10 μM/ml (Table 2), read-out: % growth inhibition compared with control after 12 days) was 76% and the Cell growth (DU-145 cells) was 38.30 + 2.92. The Cell growth (PC-3 cells) was 11.51 + 0.63, the Cell growth (LNCap cells [2]) was 11.0 + 1.10 and the “Tumor incidence (number of mice)” value ([3]; without substance 9/28) was 3/38. For the same molecule, the Tumor incidence % ([3]; without substance 32) was 8%, the “inhibition of cell growth” value (DUKX cells; 100 μg/ml, 24, 48 and 72 hours, FIG. 10) was “dramatic inhibition of cell growth; also recorded: inhibit the cell growth of tumor cells with oncogene-overexpression” and the “cell growth after removal of substance” value (DUKX cells; 24 hours, then 48 hours in 7-OH-1,2-BP-free medium, FIG. 11b1) was “considerable cell growth”. For the same molecule, the “inhibition of cell growth, second cultivation in presence of substance” value (DUKX cells; 24 hours, trypsin, then 48 hours in 7-OH-1,2-BP-containing medium, FIG. 11b2) was “cell growth was virtually completely inhibited”, the “transcription of gene coding for PDFG-A (mRNA level)” value (PDFG-A gene) was “inhibited” and the “transcription of gene coding for PDFG-B (mRNA level)” value (PDFG-B gene) was “inhibited”. For the same molecule, the “growth-inhibiting activity (growth curve) versus control” value [4] was “developed growth-inhibiting activity” and the “expression of PDGF receptors and of the EGF system” value [5] was “not influenced”.
